Numbered stars: 1 amine (or outer) side, 2 acyl side, 3 side chain; on linkers, the order of the positions; unused ones are H or OH. Bridge positions count the residues as written; N and C are the ends. Square brackets hold non-standard residues; d marks the D form. Peptide text beside a SMILES is read from it. * marks the point of attachment. hPhe(3-Cl-4-CF3) = N[C@@H](CCc1ccc(C(F)(F)F)c(Cl)c1)C(=O)O; hPhe(3-F,4-CF3) = N[C@@H](CCc1ccc(C(F)(F)F)c(F)c1)C(=O)O; NMePhe(4-CF3) = CN[C@@H](Cc1ccc(C(F)(F)F)cc1)C(=O)O; hPhe(4-CF3) = N[C@@H](CCc1ccc(C(F)(F)F)cc1)C(=O)O; 3Oxa8azabicyclo(3.2.1)octane = C1CC2COCC1N2*; NMePhe(4-Cl) = CN[C@@H](Cc1ccc(Cl)cc1)C(=O)O; NMePhe(4-Me) = CN[C@@H](Cc1ccc(C)cc1)C(=O)O; NMedβ3hAla = C[C@H](CC(=O)[*:2])N(C)[*:1]; Leu(4,5-dehydro) = C=C(C)C[C@H](N)C(=O)O; NMeNva(5,5-F2) = CN[C@@H](CCC(F)F)C(=O)O; hNle(7,7-F2) = N[C@@H](CCCCC(F)F)C(=O)O; NMeGly(cPent) = CN[C@H](C(=O)O)C1CCCC1; Phe(3-I) = N[C@@H](Cc1cccc(I)c1)C(=O)O; NMe4Pal = CN[C@@H](Cc1ccncc1)C(=O)O; NMeY = CN[C@@H](Cc1ccc(O)cc1)C(=O)O; NMeCha = CN[C@@H](CC1CCCCC1)C(=O)O; NMeGly(cPr) = CN[C@H](C(=O)O)C1CC1; NMehLeu = CN[C@@H](CCC(C)C)C(=O)O; NMeChg = CN[C@H](C(=O)O)C1CCCCC1; NMeF = CN[C@@H](Cc1ccccc1)C(=O)O; NMeI = CC[C@H](C)[C@H](NC)C(=O)O; NMeD = CN[C@@H](CC(=O)O)C(=O)O; NMeL = CN[C@@H](CC(C)C)C(=O)O; Cba = N[C@@H](CC1CCC1)C(=O)O; NMeV = CN[C@H](C(=O)O)C(C)C; d(β3hA) = C[C@@H](N)CC(=O)O; NMeA = CN[C@@H](C)C(=O)O; NMeAib = CNC(C)(C)C(=O)O; Piperidide = C1CCN(*)CC1; Pra = C#CC[C@H](N)C(=O)O; dNMeA = CN[C@H](C)C(=O)O; Ac5c = NC1(C(=O)O)CCCC1; Aze = O=C(O)[C@@H]1CCN1; CF3 = FC(F)(F)*; Sar = CNCC(=O)O
The compounds below were run on Human pancreatic cancer cell line AsPC-1 (G12D mutation Kras) (assay: AsPC-1 cell growth inhibition (AsPC-1 CGI)). Conditions: read-out: AsPC-1 cell growth inhibition, 50% growth inhibitory concentration (IC50 value); 96 hours, CellTiter-Glo, values classified in ranges.
Type: cell-based
Method: Test compounds were serially dilated with dimethyl sulfoxide, and 200 nL was then dispensed to a U-bottom 96-well plate using Labcyte Echo. […] The cell suspension was dispensed to a. plate containing a test compound at 100 μL per well and incubated at 37° C. in a 5% carbon dioxide gas incubator. 96 hours later, 80 μL of CellTiter-Glo (Promega) was added to each well and fluorescence was measured.

| SMILES | IC50 |
| --- | --- |
| C#CC[C@@H]1NC(=O)[C@H](Cc2cccc(I)c2)NC(=O)CN(C)C(=O)[C@H](Cc2ccc(OC(F)(F)F)cc2)N(C)C(=O)CN(C)C(=O)CN(C)C(=O)[C@H]([C@@H](C)CC)NC(=O)[C@H](CC(C)C)N(C)C(=O)C[C@@H](C(=O)N2CCCCC2)N(C)C(=O)[C@H](CC(C)C)NC(=O)C(C)(C)N(C)C1=O [Compound 1219] ([NMeL]I[Sar][Sar][NMeY](CF3)[Sar][Phe(3-I)][Pra][NMeAib]L[NMeD]-Piperidide; lactam N-11) | > 0.5 µM |
| CC[C@H](C)[C@@H]1NC(=O)[C@H](C)N(C)C(=O)C[C@@H](C)NC(=O)[C@H](C(C)C)N(C)C(=O)[C@H](Cc2ccccc2)N(C)C(=O)[C@H](CC(C)C)N(C)C(=O)[C@H](CCc2ccc(C(F)(F)F)cc2)NC(=O)CN(C)C(=O)[C@H](Cc2ccc(Cl)cc2)N(C)C(=O)[C@@H]2CCN2C(=O)CN(C)C1=O [Compound 913] (cyclo([Aze][NMePhe(4-Cl)][Sar][hPhe(4-CF3)][NMeL][NMeF][NMeV][d(β3hA)][NMeA]I[Sar])) | > 0.5 µM |
| CC[C@H](C)[C@@H]1NC(=O)[C@H](CC(C)C)N(C)C(=O)C[C@@H](C(=O)N(C)C)N(C)C(=O)[C@H]([C@@H](C)CC)N(C)C(=O)C2(CCCC2)NC(=O)[C@H](Cc2ccncc2)N(C)C(=O)[C@H](CCc2ccc(C(F)(F)F)c(Cl)c2)NC(=O)CN(C)C(=O)[C@H](Cc2ccc(C)cc2)N(C)C(=O)[C@@H]2CCN2C(=O)[C@H](C)N(C)C1=O [Compound 1962] ([NMeL]I[NMeA][Aze][NMePhe(4-Me)][Sar][hPhe(3-Cl-4-CF3)][NMe4Pal][Ac5c][NMeI][NMeD]-NMe2; lactam N-11) | ≤ 0.02 µM |
| CC[C@H](C)[C@@H]1NC(=O)[C@H](CC(C)C)N(C)C(=O)C[C@@H](C(=O)N2C3CCC2COC3)N(C)C(=O)[C@H](C2CCCC2)N(C)C(=O)C2(CCCC2)NC(=O)[C@@H]2CCCN2C(=O)[C@H](CCc2ccc(C(F)(F)F)c(F)c2)NC(=O)CN(C)C(=O)[C@H](CC2CCCCC2)N(C)C(=O)[C@@H]2CCN2C(=O)[C@H](C)N(C)C1=O [Compound 734] ([NMeL]I[NMeA][Aze][NMeCha][Sar][hPhe(3-F,4-CF3)]P[Ac5c][NMeGly(cPent)][NMeD]-{3Oxa8azabicyclo(3.2.1)octane}; lactam N-11) | ≤ 0.02 µM |
| C#CC[C@@H]1NC(=O)[C@H](Cc2cccc(I)c2)NC(=O)CN(C)C(=O)[C@H](Cc2ccc(C(F)(F)F)cc2)N(C)C(=O)[C@@H]2CCN2C(=O)CN(C)C(=O)[C@H]([C@@H](C)CC)NC(=O)[C@H](CC(C)C)N(C)C(=O)C[C@@H](C(=O)N2CCCCC2)N(C)C(=O)[C@H](CC(C)C)NC(=O)C(C)(C)N(C)C1=O [Compound 1425] ([NMeL]I[Sar][Aze][NMePhe(4-CF3)][Sar][Phe(3-I)][Pra][NMeAib]L[NMeD]-Piperidide; lactam N-11) | > 0.5 µM |
| CC[C@H](C)[C@@H]1NC(=O)[C@H](CC(C)C)N(C)C(=O)C[C@@H](C(=O)N(C)C)N(C)C(=O)[C@H]([C@@H](C)CC)N(C)C(=O)C2(CCCC2)NC(=O)[C@H](CCC(F)F)N(C)C(=O)[C@H](CCc2ccc(C(F)(F)F)c(Cl)c2)NC(=O)CN(C)C(=O)[C@H](Cc2ccc(C)cc2)N(C)C(=O)[C@@H]2CCN2C(=O)[C@H](C)N(C)C1=O [Compound 1898] ([NMeL]I[NMeA][Aze][NMePhe(4-Me)][Sar][hPhe(3-Cl-4-CF3)][NMeNva(5,5-F2)][Ac5c][NMeI][NMeD]-NMe2; lactam N-11) | ≤ 0.02 µM |
| CC[C@H](C)[C@@H]1NC(=O)[C@H](CC(C)C)N(C)C(=O)C[C@@H](C(=O)N(C)C)N(C)C(=O)[C@H]([C@@H](C)CC)N(C)C(=O)C2(CCCC2)NC(=O)[C@@H]2CCCN2C(=O)[C@H](CCc2ccc(C(F)(F)F)c(Cl)c2)NC(=O)CN(C)C(=O)[C@H](CC2CCCCC2)N(C)C(=O)CN(C)C(=O)CN(C)C1=O [Compound 1865] ([NMeL]I[Sar][Sar][NMeCha][Sar][hPhe(3-Cl-4-CF3)]P[Ac5c][NMeI][NMeD]-NMe2; lactam N-11) | ≤ 0.02 µM |
| CC(C)C[C@H]1C(=O)N[C@@H](CC2CCC2)C(=O)N(C)CC(=O)N(C)CC(=O)N(C)[C@@H](CC2CCCCC2)C(=O)N(C)CC(=O)N[C@@H](CCc2ccc(C(F)(F)F)c(Cl)c2)C(=O)N2CCC[C@H]2C(=O)NC2(CCCC2)C(=O)N(C)[C@@H](C(C)C)C(=O)N(C)[C@H](C(=O)N2CCCCC2)CC(=O)N1C [Compound 451] ([NMeL][Cba][Sar][Sar][NMeCha][Sar][hPhe(3-Cl-4-CF3)]P[Ac5c][NMeV][NMeD]-Piperidide; lactam N-11) | > 0.5 µM |
| CC[C@H](C)[C@@H]1NC(=O)[C@H](CC(C)C)N(C)C(=O)C[C@@H](C)N(C)C(=O)[C@H](CCC(C)C)N(C)C(=O)C2(CCCC2)NC(=O)[C@@H]2CCCN2C(=O)[C@H](CCc2ccc(C(F)(F)F)c(Cl)c2)NC(=O)CN(C)C(=O)[C@H](CC2CCCCC2)N(C)C(=O)CN(C)C(=O)CN(C)C1=O [Compound 22] (cyclo([Ac5c][NMehLeu][NMedβ3hAla][NMeL]I[Sar][Sar][NMeCha][Sar][hPhe(3-Cl-4-CF3)]P)) | > 0.5 µM |
| CC[C@H](C)[C@@H]1NC(=O)[C@H](C)N(C)C(=O)C[C@@H](C(=O)N2CCCCC2)N(C)C(=O)[C@H](C(C)C)N(C)C(=O)C2(CCCC2)NC(=O)[C@@H]2CCCN2C(=O)[C@H](CCc2ccc(C(F)(F)F)c(Cl)c2)NC(=O)[C@@H](C)N(C)C(=O)[C@H](CC2CCCCC2)N(C)C(=O)CN(C)C(=O)CN(C)C1=O [Compound 380] ([NMeA]I[Sar][Sar][NMeCha][dNMeA][hPhe(3-Cl-4-CF3)]P[Ac5c][NMeV][NMeD]-Piperidide; lactam N-11) | > 0.5 µM |
| C=C(C)C[C@@H]1NC(=O)[C@H](Cc2cccc(I)c2)NC(=O)CN(C)C(=O)[C@H](Cc2ccc(Cl)cc2)N(C)C(=O)[C@@H]2CCN2C(=O)CN(C)C(=O)[C@H]([C@@H](C)CC)NC(=O)[C@H](CC(C)C)N(C)C(=O)C[C@@H](C(=O)N2CCCCC2)N(C)C(=O)[C@H](CC(C)C)NC(=O)C(C)(C)N(C)C1=O [Compound 1414] ([NMeL]I[Sar][Aze][NMePhe(4-Cl)][Sar][Phe(3-I)][Leu(4,5-dehydro)][NMeAib]L[NMeD]-Piperidide; lactam N-11) | > 0.5 µM |
| CC(C)C[C@H]1C(=O)N[C@@H](CCCCC(F)F)C(=O)N(C)CC(=O)N(C)CC(=O)N(C)[C@@H](CC2CCCCC2)C(=O)N(C)CC(=O)N[C@@H](CCc2ccc(C(F)(F)F)c(Cl)c2)C(=O)N2CCC[C@H]2C(=O)NC2(CCCC2)C(=O)N(C)[C@@H](C2CCCCC2)C(=O)N(C)[C@H](C(=O)N2CCCCC2)CC(=O)N1C [Compound 92] ([NMeL][hNle(7,7-F2)][Sar][Sar][NMeCha][Sar][hPhe(3-Cl-4-CF3)]P[Ac5c][NMeChg][NMeD]-Piperidide; lactam N-11) | > 0.5 µM |
| CC[C@H](C)[C@@H]1NC(=O)[C@H](CC(C)C)N(C)C(=O)C[C@@H](C)NC(=O)[C@H](C2CC2)N(C)C(=O)C2(CCCC2)NC(=O)[C@@H]2CCCN2C(=O)[C@H](CCc2ccc(C(F)(F)F)c(Cl)c2)NC(=O)CN(C)C(=O)[C@H](CC2CCCCC2)N(C)C(=O)CN(C)C(=O)CN(C)C1=O [Compound 14] (cyclo([Ac5c][NMeGly(cPr)][d(β3hA)][NMeL]I[Sar][Sar][NMeCha][Sar][hPhe(3-Cl-4-CF3)]P)) | > 0.5 µM |
| C#CC[C@@H]1NC(=O)[C@H](Cc2cccc(I)c2)NC(=O)CN(C)C(=O)[C@H](Cc2ccc(C(F)(F)F)cc2)N(C)C(=O)CN(C)C(=O)CN(C)C(=O)[C@H]([C@@H](C)CC)NC(=O)[C@H](CC(C)C)N(C)C(=O)C[C@@H](C(=O)N2CCCCC2)N(C)C(=O)[C@H](CC(C)C)NC(=O)C(C)(C)N(C)C1=O [Compound 1361] ([NMeL]I[Sar][Sar][NMePhe(4-CF3)][Sar][Phe(3-I)][Pra][NMeAib]L[NMeD]-Piperidide; lactam N-11) | > 0.5 µM |

From patent publication US20240148821A1, “PHARMACEUTICAL USE OF CYCLIC PEPTIDE COMPOUND” (CHUGAI SEIYAKU KABUSHIKI KAISHA, priority 2021, published 2024)
